Reference: patent publication US20240368177A1, “5-AMINO-6,8-DIHYDRO-1H-FURO[3,4-d]PYRROLO[3,2-b]PYRIDINE-2-CARBOXAMIDE DERIVATIVES AS MTA-COOPERATIVE INHIBITORS OF PRMT5” (BeiGene Switzerland GmbH, priority 2023, published 2024)

Assays:
HCT116-MTAP-KO = assay: Cell killing in HCT116 isogenic pair (Cell Titer-Glo viability), MTAP knock-out cells; format: cell-based, human; conditions: Homo sapiens, HCT-116, 144 h, 6 days incubation, 0-10 μM, * = more than 50% viability inhibition at tested concentration without a full curve
Outline: (§1)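 Viability was read by CellTiter-Glo luminescence after 6 days of compound treatment (0–10 μM final, 37° C, 5% CO2), and IC50 values were fitted. The isogenic HCT116 pair, MTAP-KO clone versus mock-KO MTAP-wildtype, was grown in RPMI 1640 plus 10% FBS and seeded the day before.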

HCT116-mock-RNA-KO = assay: Cell killing in HCT116 isogenic pair (Cell Titer-Glo viability), mock knock-out cells with MTAP wildtype genotype; format: cell-based, human; conditions: Homo sapiens, HCT-116, 144 h, 6 days incubation, 0-10 μM
Outline: as §1

Row | Structure (SMILES) | IC50 (HCT116-MTAP-KO) [nM] | IC50 (HCT116-mock-RNA-KO) [nM]
1 | CCN(C(=O)c1cc2nc(N)c3c(c2[nH]1)COC3)[C@@H]1CO[C@H](C)c2cc(C(F)(F)F)ccc21 [Example 89, 5-amino-N-ethyl-N-((1R,4S)-1-methyl-7-(trifluoromethyl)isochroman-4-yl)-6,8-dihydro-1H-furo[3,4-d]pyrrolo[3,2-b]pyridine-2-carboxamide] | 4.1 | 446
2 | CC(=O)N1CC[C@@H](N(C)C(=O)c2cc3nc(N)c4c(c3[nH]2)COC4)c2ccc(C(F)(F)F)cc21 [Example 90, (R)—N-(1-acetyl-7-(trifluoromethyl)-1,2,3,4-tetrahydroquinolin-4-yl)-5-amino-N-methyl-6,8-dihydro-1H-furo[3,4-d]pyrrolo[3,2-b]pyridine-2-carboxamide] | 29 | 5450
3 | CN(C(=O)c1cc2nc(N)c3c(c2[nH]1)COC3)[C@@H]1COC2(CC2)c2cc(C(F)(F)F)ccc21 [Example 91, (S)-5-amino-N-methyl-N-(7′-(trifluoromethyl)spiro[cyclopropane-1,1′-isochroman]-4′-yl)-6,8-dihydro-1H-furo[3,4-d]pyrrolo[3,2-b]pyridine-2-carboxamide] | 32 | 3880
4 | CN(C(=O)c1[nH]c2c3c(c(N)nc2c1C#N)COC3)[C@@H]1COCc2cc(C(F)(F)F)ccc21 [Example 92, (S)-5-amino-3-cyano-N-methyl-N-(7-(trifluoromethyl)isochroman-4-yl)-6,8-dihydro-1H-furo[3,4-d]pyrrolo[3,2-b]pyridine-2-carboxamide] | 49 | 2050
5 | CC[C@@H]1OC[C@@H](N(C)C(=O)c2cc3nc(N)c4c(c3[nH]2)COC4)c2ccc(C(F)(F)F)cc21 [Example 93, 5-amino-N-((1S,4S)-1-ethyl-7-(trifluoromethyl)isochroman-4-yl)-N-methyl-6,8-dihydro-1H-furo[3,4-d]pyrrolo[3,2-b]pyridine-2-carboxamide] | 165 | > 10000
6 | CC[C@H]1OC[C@@H](N(C)C(=O)c2cc3nc(N)c4c(c3[nH]2)COC4)c2ccc(C(F)(F)F)cc21 [Example 94, 5-amino-N-((1R,4S)-1-ethyl-7-(trifluoromethyl)isochroman-4-yl)-N-methyl-6,8-dihydro-1H-furo[3,4-d]pyrrolo[3,2-b]pyridine-2-carboxamide] | 3.8 | 578
7 | CN(C(=O)c1cc2nc(N)c3c(c2[nH]1)COC3)[C@@H]1COCc2cc(C3CC3)cc(F)c21 [Example 95, (S)-5-amino-N-(7-cyclopropyl-5-fluoroisochroman-4-yl)-N-methyl-6,8-dihydro-1H-furo[3,4-d]pyrrolo[3,2-b]pyridine-2-carboxamide] | 18 | 1780
8 | CN(C(=O)c1cc2nc(N)c3c(c2[nH]1)COC3)[C@@H]1COCc2cc(Br)cc(F)c21 [Example 96, (S)-5-amino-N-(7-bromo-5-fluoroisochroman-4-yl)-N-methyl-6,8-dihydro-1H-furo[3,4-d]pyrrolo[3,2-b]pyridine-2-carboxamide] | 7.2 | 1930
9 | CN(C(=O)c1cc2nc(N)c3c(c2[nH]1)COC3)[C@@H]1COCc2cc(C#N)cc(F)c21 [Example 97, (S)-5-amino-N-(7-cyano-5-fluoroisochroman-4-yl)-N-methyl-6,8-dihydro-1H-furo[3,4-d]pyrrolo[3,2-b]pyridine-2-carboxamide] | 17 | 2890
10 | CC(=O)N1Cc2cc(C(F)(F)F)ccc2[C@H](N(C)C(=O)c2cc3nc(N)c4c(c3[nH]2)COC4)C1 [Example 98, (S)—N-(2-acetyl-7-(trifluoromethyl)-1,2,3,4-tetrahydroisoquinolin-4-yl)-5-amino-N-methyl-6,8-dihydro-1H-furo[3,4-d]pyrrolo[3,2-b]pyridine-2-carboxamide] | 11 | 1860
11 | CC(=O)N1Cc2cc(C(F)(F)F)ccc2[C@@H](N(C)C(=O)c2cc3nc(N)c4c(c3[nH]2)COC4)C1 [Example 99, (R)—N-(2-acetyl-7-(trifluoromethyl)-1,2,3,4-tetrahydroisoquinolin-4-yl)-5-amino-N-methyl-6,8-dihydro-1H-furo[3,4-d]pyrrolo[3,2-b]pyridine-2-carboxamide] | 722 | > 10000
12 | CN(C(=O)c1cc2nc(N)c3c(c2[nH]1)COC3)[C@@H]1CN(C(=O)C2CC2)Cc2cc(C(F)(F)F)ccc21 [Example 100, (S)-5-amino-N-(2-(cyclopropanecarbonyl)-7-(trifluoromethyl)-1,2,3,4-tetrahydroisoquinolin-4-yl)-N-methyl-6,8-dihydro-1H-furo[3,4-d]pyrrolo[3,2-b]pyridine-2-carboxamide] | 1.4 | 136
13 | CN(C(=O)c1cc2nc(N)c3c(c2[nH]1)COC3)[C@H]1CN(C(=O)C2CC2)Cc2cc(C(F)(F)F)ccc21 [Example 101, (R)-5-amino-N-(2-(cyclopropanecarbonyl)-7-(trifluoromethyl)-1,2,3,4-tetrahydroisoquinolin-4-yl)-N-methyl-6,8-dihydro-1H-furo[3,4-d]pyrrolo[3,2-b]pyridine-2-carboxamide] | 339 | 2090
14 | CC(C)C(=O)N1Cc2cc(C(F)(F)F)ccc2[C@H](N(C)C(=O)c2cc3nc(N)c4c(c3[nH]2)COC4)C1 [Example 102, (S)-5-amino-N-(2-isobutyryl-7-(trifluoromethyl)-1,2,3,4-tetrahydroisoquinolin-4-yl)-N-methyl-6,8-dihydro-1H-furo[3,4-d]pyrrolo[3,2-b]pyridine-2-carboxamide] | 1.1 | 77
15 | CC(C)C(=O)N1Cc2cc(C(F)(F)F)ccc2[C@@H](N(C)C(=O)c2cc3nc(N)c4c(c3[nH]2)COC4)C1 [Example 103, (R)-5-amino-N-(2-isobutyryl-7-(trifluoromethyl)-1,2,3,4-tetrahydroisoquinolin-4-yl)-N-methyl-6,8-dihydro-1H-furo[3,4-d]pyrrolo[3,2-b]pyridine-2-carboxamide] | 272 | 2450
16 | CN(C(=O)c1cc2nc(N)c3c(c2[nH]1)COC3)[C@@H]1COCc2cc(-c3cccnc3)ccc21 [Example 104, (S)-5-amino-N-methyl-N-(7-(pyridin-3-yl)isochroman-4-yl)-6,8-dihydro-1H-furo[3,4-d]pyrrolo[3,2-b]pyridine-2-carboxamide] | 18 | 2730
17 | CCC(CC)N(Cc1c(F)cc(C2CC2)cc1F)C(=O)c1cc2nc(N)c3c(c2[nH]1)COC3 [Example 105, 5-amino-N-(4-cyclopropyl-2,6-difluorobenzyl)-N-(pentan-3-yl)-6,8-dihydro-1H-furo[3,4-d]pyrrolo[3,2-b]pyridine-2-carboxamide] | 13 | 930
18 | CC(C)N(Cc1ccc(C2CC2)cn1)C(=O)c1cc2nc(N)c3c(c2[nH]1)CO[C@@H]3C [Example 106, (R)-5-amino-N-((5-cyclopropylpyridin-2-yl)methyl)-N-isopropyl-6-methyl-6,8-dihydro-1H-furo[3,4-d]pyrrolo[3,2-b]pyridine-2-carboxamide] | 11 | 2630
19 | CC[C@@H](C)N(Cc1ccc(C2CCC2)cn1)C(=O)c1cc2nc(N)c3c(c2[nH]1)COC3 [Example 107, (R)-5-amino-N-(sec-butyl)-N-((5-cyclobutylpyridin-2-yl)methyl)-6,8-dihydro-1H-furo[3,4-d]pyrrolo[3,2-b]pyridine-2-carboxamide] | 20 | 1090
20 | CC[C@@H](C)N(Cc1ccc(C2CC2)c(C)n1)C(=O)c1cc2nc(N)c3c(c2[nH]1)COC3 [Example 108, (R)-5-amino-N-(sec-butyl)-N-((5-cyclopropyl-6-methylpyridin-2-yl)methyl)-6,8-dihydro-1H-furo[3,4-d]pyrrolo[3,2-b]pyridine-2-carboxamide] | 31 | 3420
21 | CCC(CC)N(Cc1cc(C)c(C2CC2)cn1)C(=O)c1cc2nc(N)c3c(c2[nH]1)COC3 [Example 109, 5-amino-N-((5-cyclopropyl-4-methylpyridin-2-yl)methyl)-N-(pentan-3-yl)-6,8-dihydro-1H-furo[3,4-d]pyrrolo[3,2-b]pyridine-2-carboxamide] | 24 | 1790
22 | CCN(C(=O)c1cc2nc(N)c3c(c2[nH]1)COC3)[C@H](C)c1ncc(C(F)(F)F)cc1F [Example 110, (R)-5-amino-N-ethyl-N-(1-(3-fluoro-5-(trifluoromethyl)pyridin-2-yl)ethyl)-6,8-dihydro-1H-furo[3,4-d]pyrrolo[3,2-b]pyridine-2-carboxamide] | 12 | 2490
23 | CCN(C(=O)c1cc2nc(N)c3c(c2[nH]1)COC3)[C@@H](C)c1ncc(C(F)(F)F)cc1F [Example 111, (S)-5-amino-N-ethyl-N-(1-(3-fluoro-5-(trifluoromethyl)pyridin-2-yl)ethyl)-6,8-dihydro-1H-furo[3,4-d]pyrrolo[3,2-b]pyridine-2-carboxamide] | 2200 | > 10000
24 | CCN(C(=O)c1cc2nc(N)c3c(c2[nH]1)COC3)[C@H](C)c1ccc(C2CC2)cn1 [Example 112, (R)-5-amino-N-(1-(5-cyclopropylpyridin-2-yl)ethyl)-N-ethyl-6,8-dihydro-1H-furo[3,4-d]pyrrolo[3,2-b]pyridine-2-carboxamide] | 59 | > 10000
25 | CCN(C(=O)c1cc2nc(N)c3c(c2[nH]1)COC3)[C@@H](C)c1ccc(C2CC2)cn1 [Example 113, (S)-5-amino-N-(1-(5-cyclopropylpyridin-2-yl)ethyl)-N-ethyl-6,8-dihydro-1H-furo[3,4-d]pyrrolo[3,2-b]pyridine-2-carboxamide] | 1610 | > 10000
26 | CCN(C(=O)c1cc2nc(N)c3c(c2[nH]1)COC3)[C@@H](C)c1ccc(C(F)(F)F)cn1 [Example 114, (S)-5-amino-N-ethyl-N-(1-(5-(trifluoromethyl)pyridin-2-yl)ethyl)-6,8-dihydro-1H-furo[3,4-d]pyrrolo[3,2-b]pyridine-2-carboxamide] | 3630 | > 10000
